Measured values published in article PMC10334834, “A de novo dual-targeting supramolecular self-assembly peptide against pulmonary metastasis of melanoma” (Theranostics, 2023).
Entries after “also recorded” stand apart in the source; their conditions may differ. Where two headings read alike, the source gives them in different places.

Assays:
[1] = test system: B16F10 pulmonary metastasis of melanoma; experiment: Lung metastasis model of melanoma; type: in vivo; details: 5×10^5 B16F10 cells i.v., 4 mg/kg every other day, six cycles, day 24, n = 5, mean ± s.d.; PBS group 94 ± 41
B16F10 cells [2] = experiment: Cell clone formation assay; type: cell-based, mouse; details: 7 days of drug treatment
[3] = test system: β-catenin, np-β-catenin, c-Myc; experiment: Western blot, Wnt/β-catenin pathway proteins; type: cell-based, mouse; details: B16F10 cells, 24 h
B16F10 cells [4] = test system: B16F10 cells
Procedure: (§9) To explore the antitumor properties of HBB^plus@CA at the cellular level, we measured the viability of B16F10 cells after treatment with HBB^plus@CA.
(§10) Mouse melanoma cell line B16F10, mouse macrophage cell line RAW 264.7, and human leukemic
(§11) T-cell line Jurkat were obtained from the Chinese Academy of Science Cell Bank (Shanghai, China).
(§12) B16F10 and RAW 264.7 cells were maintained in DMEM medium, Jurkat was cultured in RPMI-
(§13) 1640 medium, and the above mediums were supplemented with 10% FBS, 100 U/mL penicillin,
(§14) and 100 μg/mL streptomycin. All cells were maintained at 37°C in an atmosphere of 5% CO2.
(§15) Melanoma cells B16F10 were inoculated uniformly in 96 empty plates according to 2000 cells.
(§16) After 24 h, different gradient concentrations of HBB plus@CA or CA, HBB, or RGDSP-X were
(§17) intervened at 37°C in an atmosphere of 5% CO 2 for 72 h. The in vitro cell viability was measured
(§18) using a standard Alamar blue (Thermo Fisher Scientific, China) assay in the B16F10 cell s.

[5] = Acute toxicity test in vivo; details: healthy C57BL/6 mice; for body weight: every other day, six cycles
B16F10 cells [6] = experiment: Cell viability, Alamar blue
Procedure: as §9, §10, §11, §12, §13, §14, §15, §16, §17, §18

B16F10 cells [7] = experiment: Scratch wound healing assay; type: cell-based, mouse; details: 60 μM, 24 h, 1% FBS; for migration rate: Image J, triplicate
Procedure: (§1) As a next step, we tested the ability of supramolecular peptides to prevent tumor cell migration and invasion. […] Meanwhile, a scratch wound was harvested as part of the migration assay, and the healing process was observed. Based on a digital image, the areas of scratching without cells immediately following scratching and those of scratching without cells after the assay was calculated. […] We observed the same results in the transwell migration assay. Furthermore, tumor cells' invasive abilities play a critical role in metastasis. Using a transwell invasion assay (Figure 4G), we assessed the ability of HBB^plus@CA to inhibit tumor cell invasion.
(§2) Scratch wound healing assay […]
(§3) monolayer with a pipette tip (100 μL). The monolayer membrane was washed with PBS three times, […]
(§4) Detection Kit (BD Falco, China). […]
(§5) for 24 h at a concentration of 40 μM.
(§6) FITC-labeled HBB, HBBplus, and […]
(§7) it for 10 min. […] DAPI (Sigma-Aldrich,
(§8) Finally, a super-resolution confocal microscope was used to observe the cell uptake situation.

[8] = test system: Ki-67, β-catenin, np β-catenin, Cyclin D1, c-Myc, p-ERK1/2, N-cadherin, E-cadherin; experiment: Immunohistochemistry of tumor-bearing lung sections; details: 4 mg/kg, six cycles, score I × A, n = 5, control scored 8.3
Procedure: All samples were assayed in triplicate.
Construct a lung metastasis model of melanoma
The lung metastasis model o f melanoma was constructed as follows: B16F10 cells (5 × 10^5 cells per
100 µL) were transplanted into healthy C57BL/6 mice by intravenous injection at 5 -6 weeks of age.
After 3 days, the mice were randomly divided into the PBS control group, CA group (4 mg/kg),
HBBplus group (4 mg/kg), HBBplus@CA group (4 mg/ kg), HBBplus + CA group (4 mg/ kg) tail-vein
injected, every other day, summed six cycles. The experiment was terminated, and the mice were
euthanized. For histological examination, the tumor, liver, k idney, heart, spleen , and lung tissues
were fixed with formaldehyde, dehydrated, sliced into 4 μm sections, and subjected to H&E or
immunohistochemical staining.
H&E and immunohistochemistry (IHC) staining
Tumor-bearing lungs and primary organ tissues were dissected and immersed in formalin solution.
Then they were paraffin-embedded, sectioned with a 4 μm thick. Nextly, the sections were stained
with hematoxylin-eosin (H&E) according to standard histopathological techniques. Besides, under
conventional immunohistochemical staining, the expression of Ki -67 (Proteintech, USA; 1: 400),
β-catenin (Thermo Fisher, China; 1: 2000), np β-catenin (Cell Signaling Technology, USA; 1: 100), […]
1: 500) in tumor-bearing lungs sections were detected. […]

B16F10 cells [9] = experiment: Transwell migration and invasion assays; type: cell-based, mouse; details: 30 μM, 24h-48h
Procedure: as §1
performed on a Talos F200X.
The hydrodynamic size distribution (1
Zetasizer Nano ZS system). The surface chemical structure of modified nanocrystals was evaluated
(Shimadzu 3000 spectrophotometer). The structural identification of modified nanocrystals was
and 100 μg/mL streptomycin.
The in vitro cell viability was measured
containing 15% FBS medium for 24h -48h. Cells that migrated or invaded across the membrane

B16F10 cells [10] = experiment: Cell apoptosis by flow cytometry (FITC Annexin V/PI); type: cell-based, mouse; details: 40 μM, 24 h
Procedure: as §2, §3, §4, §5, §6, §7, §8

B16F10 lung metastasis = experiment: Ex vivo fluorescence biodistribution in mice with pulmonary metastatic melanoma; details: Cy5-SE labelled, i.v. 200 μL (1 mg/mL), tumor-bearing C57BL/6 mice, organs at 12 h and 24 h
p-ERK1/2 = experiment: Western blot, p-ERK1/2; type: cell-based, mouse; details: B16F10 cells
[11] = Self-assembly into nanospheres observed by TEM; type: physicochemical; details: peptide alone without CA
Description: The hydrophobic tails of HBB^plus interact and gather together, forming a hydrophobic core. At the same time, the hydrophilic head interacts with water molecules to wrap around the core, forming a stable micelle structure. The hydrophobic drug CA will be encapsulated in the hydrophobic area of the micelles during micellar assembly. CA is immobilized inside the micelles by interacting with the hydrophobic tails of the micelles (hydrophobic interactions and hydrogen bonding) (Figure 1D). We used the GROMACS 2018.3 software package and combined it with the MARTINI coarse-grained model (version 2.2) to conduct dynamics simulations on a system composed of 24× HBB^plus peptide molecules and 100× CA molecules in an aqueous solution during 5000 ns. […] To verify it, CA was mixed with HBB^plus in mass ratios ranging from 4:1 to 0.25:1. […] Furthermore, there was a strong positive correlation between the concentration of CA and particle size (Figure 1E). […]
Zetasizer Nano ZS system). The surface chemical structure of modified nanocrystals was evaluated […]
The in vitro cell viability was measured […]

CC(C)c1cc2c(c(O)c1O)[C@@]1(C(=O)O)CCCC(C)(C)[C@@H]1CC2 [CA, carnosic acid]
number of metastatic lung foci [1]: 37 ± 10 per lung
clone formation (B16F10 cells [2]): significantly reduced the number of clones
β-catenin, np-β-catenin and c-Myc protein expression [3]: significantly downregulated
cytotoxicity / antiproliferative activity (B16F10 cells [4]): concentration-dependent cytotoxicity
renal function tests (urea nitrogen, creatinine) ([5]; 4-40 mg/kg): did not cause severe nephrotoxicity
RBC, WBC, PLT, HGB, GRAN, Mon, Lymph in blood ([5]; 4-40 mg/kg, n = 3/group, versus controls): neither HBB^plus@CA nor CA affected
body weight ([5]; 5× doses (20 mg/kg)): notable weight loss
ALT and AST (liver function) ([5]; 10× doses (40 mg/kg)): elevations of ALT and AST
body weight ([5]; 10× doses (40 mg/kg)): notable weight loss
H&E staining of lung tissue ([5]; low-dose and high-dose groups): inflammatory cell infiltration
TNF-α, IFN-γ and EPO levels of peripheral blood ([5]; up to high dose, ELISA, n = 3/group): did not significantly increase
IC50 (B16F10 cells [6]; Mus musculus, B16-F10, 72 h, read-out: IC50 (cell viability)): 29.2 ± 4.68 µM
migration rate (B16F10 cells [7]): ~ 27%
Ki-67 expression score (IHC) [8]: 5.7

RGDSPENPRLLGNVLVCVLA [HBB^plus]
transwell migration and invasion (B16F10 cells [9]): inhibited the migration
number of metastatic lung foci [1]: 32 ± 12 per lung
apoptosis of tumor cells (B16F10 cells [10]): significantly effective in increasing the apoptosis
clone formation (B16F10 cells [2]): more potent antiproliferative activity
tumor accumulation (biodistribution) (B16F10 lung metastasis): superior tumor accumulation compared to HBB
level of p-ERK1/2 (p-ERK1/2): reduced the level; also recorded: significantly down-regulated
cytotoxicity / antiproliferative activity (B16F10 cells [6]; B16F10 cells, 72 h, Alamar blue): more potent antiproliferative activity
migration in scratch assay (B16F10 cells [7]): inhibited the migration
migration rate (B16F10 cells [7]): ~ 36%
self-assembly into nanospheres [11]: incapable of undergoing such a process
Ki-67 expression score (IHC) [8]: 6.2
